Measured values from PubChem BioAssay (NCI).
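96-well plates; 48 h exposure; 5 concentrations. Endpoints by linear interpolation between flanking doses. Not reached: highest tested concentration assigned. GI50 = concentration required for 50% inhibition of growth. TGI: concentration producing complete growth inhibition.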

Key:
Assay in all cases: DTP human tumour cell line panel, 48 h
SW-620 colon = tested on: SW-620 colon
SNB-19 CNS = tested on: SNB-19 CNS
CAKI-1 renal = tested on: CAKI-1 renal
MALME-3M melanoma = tested on: MALME-3M melanoma
SK-OV-3 ovarian = tested on: SK-OV-3 ovarian
NCI/ADR-RES ovarian = tested on: NCI/ADR-RES ovarian
UACC-257 melanoma = tested on: UACC-257 melanoma
MDA-MB-468 breast = tested on: MDA-MB-468 breast
HCT-116 colon = tested on: HCT-116 colon
IGROV1 ovarian = tested on: IGROV1 ovarian
MCF7 breast = tested on: MCF7 breast
NCI-H23 lung = tested on: NCI-H23 lung
BT-549 breast = tested on: BT-549 breast
SK-MEL-5 melanoma = tested on: SK-MEL-5 melanoma
A498 renal = tested on: A498 renal
MDA-MB-435 = tested on: MDA-MB-435
HOP-62 NSCLC = tested on: HOP-62 NSCLC
MOLT-4 leukemia = tested on: MOLT-4 leukemia
TK-10 renal = tested on: TK-10 renal
OVCAR-4 ovarian = tested on: OVCAR-4 ovarian
OVCAR-3 ovarian = tested on: OVCAR-3 ovarian
COLO 205 colon = tested on: COLO 205 colon
MDA-MB-231 breast = tested on: MDA-MB-231 breast
SF-295 CNS = tested on: SF-295 CNS
NCI-H460 lung = tested on: NCI-H460 lung
HCT-15 colon = tested on: HCT-15 colon
HT29 colon = tested on: HT29 colon
HCC-2998 colon = tested on: HCC-2998 colon
ACHN renal = tested on: ACHN renal
RXF 393 renal = tested on: RXF 393 renal
K-562 leukemia = tested on: K-562 leukemia
RPMI-8226 leukemia = tested on: RPMI-8226 leukemia
DU-145 prostate = tested on: DU-145 prostate
OVCAR-5 ovarian = tested on: OVCAR-5 ovarian
A549 NSCLC = tested on: A549 NSCLC
KM12 colon = tested on: KM12 colon
SF-539 CNS = tested on: SF-539 CNS
PC-3 prostate = tested on: PC-3 prostate
NCI-H522 lung = tested on: NCI-H522 lung
U251 CNS = tested on: U251 CNS
LOX IMVI melanoma = tested on: LOX IMVI melanoma
SF-268 CNS = tested on: SF-268 CNS
OVCAR-8 ovarian = tested on: OVCAR-8 ovarian
NCI-H226 lung = tested on: NCI-H226 lung
T-47D breast = tested on: T-47D breast
HL-60(TB) leukemia = tested on: HL-60(TB) leukemia
SK-MEL-28 melanoma = tested on: SK-MEL-28 melanoma
M14 melanoma = tested on: M14 melanoma
SR leukemia = tested on: SR leukemia
HS 578T breast = tested on: HS 578T breast
CCRF-CEM leukemia = tested on: CCRF-CEM leukemia
SK-MEL-2 melanoma = tested on: SK-MEL-2 melanoma
UO-31 renal = tested on: UO-31 renal
HOP-92 NSCLC = tested on: HOP-92 NSCLC
EKVX NSCLC = tested on: EKVX NSCLC
SNB-75 CNS = tested on: SNB-75 CNS
SN12C renal = tested on: SN12C renal
786-0 renal = tested on: 786-0 renal
UACC-62 melanoma = tested on: UACC-62 melanoma

`O=C(N/N=C/c1c[nH]c2ccccc12)Nc1ccc(F)c(Cl)c1` gave a GI50 (SW-620 colon) of 10.9 µM, a TGI (SW-620 colon) of 22.8 µM and a GI50 (SNB-19 CNS) of 14.9 µM. It also gave a TGI (SNB-19 CNS) of 28.1 µM, a GI50 (CAKI-1 renal) of 14.8 µM and a TGI (CAKI-1 renal) of 28 µM. The GI50 (MALME-3M melanoma) was 12.6 µM, the TGI (MALME-3M melanoma) was 25.1 µM and the GI50 (SK-OV-3 ovarian) was 12.9 µM. The TGI (SK-OV-3 ovarian) was 26.8 µM, the GI50 (NCI/ADR-RES ovarian) was 6.05 µM and the TGI (NCI/ADR-RES ovarian) was 25 µM. The GI50 (UACC-257 melanoma) was 13.6 µM, the TGI (UACC-257 melanoma) was 26.4 µM and the GI50 (MDA-MB-468 breast) was 1.98 µM. The TGI (MDA-MB-468 breast) was 7.74 µM, the GI50 (HCT-116 colon) was 1.49 µM and the TGI (HCT-116 colon) was 2.84 µM. The GI50 (IGROV1 ovarian) was 7.6 µM, the TGI (IGROV1 ovarian) was 21.7 µM and the GI50 (MCF7 breast) was 6.47 µM. For the same compound, the TGI (MCF7 breast) was 23.1 µM, the GI50 (NCI-H23 lung) was 13.5 µM and the TGI (NCI-H23 lung) was 27.2 µM. The GI50 (BT-549 breast) was 0.312 µM, the TGI (BT-549 breast) was 1.54 µM and the GI50 (SK-MEL-5 melanoma) was 8.65 µM. It also gave a TGI (SK-MEL-5 melanoma) of 20.8 µM, a GI50 (A498 renal) of 15.4 µM and a TGI (A498 renal) of 30.2 µM. The GI50 (MDA-MB-435) was 3.35 µM, the TGI (MDA-MB-435) was 12.6 µM and the GI50 (HOP-62 NSCLC) was 13.1 µM. It also gave a TGI (HOP-62 NSCLC) of 25.8 µM, a GI50 (MOLT-4 leukemia) of 1.44 µM and a TGI (MOLT-4 leukemia) of 11.8 µM. It also gave a GI50 (TK-10 renal) of 22.8 µM, a TGI (TK-10 renal) of 44.3 µM and a GI50 (OVCAR-4 ovarian) of 12.8 µM. The TGI (OVCAR-4 ovarian) was 28.7 µM, the GI50 (OVCAR-3 ovarian) was 11.5 µM and the TGI (OVCAR-3 ovarian) was 23.6 µM. It also gave a GI50 (COLO 205 colon) of 14.1 µM, a TGI (COLO 205 colon) of 27.1 µM and a GI50 (MDA-MB-231 breast) of 11.8 µM. For the same compound, the TGI (MDA-MB-231 breast) was 24 µM, the GI50 (SF-295 CNS) was 14.4 µM and the TGI (SF-295 CNS) was 27.4 µM. For the same compound, the GI50 (NCI-H460 lung) was 13 µM, the TGI (NCI-H460 lung) was 26.3 µM and the GI50 (HCT-15 colon) was 5.13 µM. The TGI (HCT-15 colon) was 17.9 µM, the GI50 (HT29 colon) was 12.7 µM and the TGI (HT29 colon) was 25.3 µM. It also gave a GI50 (HCC-2998 colon) of 11.7 µM, a TGI (HCC-2998 colon) of 23.9 µM and a GI50 (ACHN renal) of 14.6 µM. The TGI (ACHN renal) was 27.7 µM, the GI50 (RXF 393 renal) was 3.97 µM and the TGI (RXF 393 renal) was 15.5 µM. For the same compound, the GI50 (K-562 leukemia) was 1.86 µM, the TGI (K-562 leukemia) was 17.4 µM and the GI50 (RPMI-8226 leukemia) was 1.48 µM. It also gave a TGI (RPMI-8226 leukemia) of 9.26 µM, a GI50 (DU-145 prostate) of 14.4 µM and a TGI (DU-145 prostate) of 27.4 µM. It also gave a GI50 (OVCAR-5 ovarian) of 13.5 µM, a TGI (OVCAR-5 ovarian) of 26.3 µM and a GI50 (A549 NSCLC) of 12.7 µM. The TGI (A549 NSCLC) was 26.3 µM, the GI50 (KM12 colon) was 8.76 µM and the TGI (KM12 colon) was 21 µM. It also gave a GI50 (SF-539 CNS) of 10.1 µM, a TGI (SF-539 CNS) of 21.6 µM and a GI50 (PC-3 prostate) of 3.12 µM. It also gave a TGI (PC-3 prostate) of 14.5 µM, a GI50 (NCI-H522 lung) of 1.68 µM and a TGI (NCI-H522 lung) of 8.35 µM. The GI50 (U251 CNS) was 13.3 µM, the TGI (U251 CNS) was 26 µM and the GI50 (LOX IMVI melanoma) was 11.2 µM. For the same compound, the TGI (LOX IMVI melanoma) was 23.2 µM, the GI50 (SF-268 CNS) was 8.09 µM and the TGI (SF-268 CNS) was 20.9 µM. The GI50 (OVCAR-8 ovarian) was 14.3 µM, the TGI (OVCAR-8 ovarian) was 31.6 µM and the GI50 (NCI-H226 lung) was 10.3 µM. The TGI (NCI-H226 lung) was 34.7 µM, the GI50 (T-47D breast) was 11.5 µM and the TGI (T-47D breast) was 32 µM. The GI50 (HL-60(TB) leukemia) was 3.44 µM, the TGI (HL-60(TB) leukemia) was 18.8 µM and the GI50 (SK-MEL-28 melanoma) was 12.5 µM. The TGI (SK-MEL-28 melanoma) was 25 µM, the GI50 (M14 melanoma) was 1.57 µM and the TGI (M14 melanoma) was 3.44 µM. For the same compound, the GI50 (SR leukemia) was 2.2 µM, the TGI (SR leukemia) was 13.3 µM and the GI50 (HS 578T breast) was 13.7 µM. It also gave a TGI (HS 578T breast) of 39.7 µM, a GI50 (CCRF-CEM leukemia) of 0.604 µM and a TGI (CCRF-CEM leukemia) of 11.7 µM. The GI50 (SK-MEL-2 melanoma) was 10.7 µM, the TGI (SK-MEL-2 melanoma) was 22.6 µM and the GI50 (UO-31 renal) was 5.01 µM. It also gave a TGI (UO-31 renal) of 19.4 µM, a GI50 (HOP-92 NSCLC) of 2.04 µM and a TGI (HOP-92 NSCLC) of 6.59 µM. The GI50 (EKVX NSCLC) was 13.8 µM, the TGI (EKVX NSCLC) was 28.6 µM and the GI50 (SNB-75 CNS) was 11.8 µM. For the same compound, the TGI (SNB-75 CNS) was 24 µM, the GI50 (SN12C renal) was 11.2 µM and the TGI (SN12C renal) was 23.2 µM. It also gave a GI50 (786-0 renal) of 1.37 µM, a TGI (786-0 renal) of 3.27 µM and a GI50 (UACC-62 melanoma) of 10.8 µM. It also gave a TGI (UACC-62 melanoma) of 22.6 µM.
